Here are results for four molecules from patent publication US20240051971A1, “INTRACELLULAR ATP ENHANCER” (School Juridical Person Higashi-Nippon-Gakuen, priority 2020, published 2024).

Like-named read-outs stand apart in the source and are kept apart here.

Data set [1] deals with serum uric acid level. The settings on record: febuxostat 40 mg, case described in Non Patent Literature 3; first day of the administration (about 15 hours after the administration); cited from earlier work.
Another data set concerns plasma uric acid level. The data set is described as follows: Reference Example 15, plasma uric acid in oxonic acid-induced hyperuricemic rats, 28-day repeated administration. The class given is in vivo, oxonic acid-induced hyperuricemic rats (Crl:CD (SD)). The settings on record: oral once a day for 28 days, non-fasting; Compound 14 0.3 mg/kg; Days 1, 7, 14, 21, 28. Here is the method: Compound 14 suspended in a 1% aqueous methylcellulose solution was orally administered to oxonic acid-induced hyperuricemic rats at a dose of 0.3 mg/kg once a day for 28 days under non-fasting conditions. As a control, a 1% aqueous methylcellulose solution was used, and as a positive control, febuxostat was used.
As rats, male Crl:CD (SD) rats (produced by Charles River Laboratories Japan, Inc.) were used. The rats were purchased at the age of 6 weeks, and the administration was started at the age of 7 weeks.
Potassium oxonate was prepared by adding and suspending 10 g of potassium oxonate (Sigma-Aldrich Corp., Lot No. 03810 HD) to 200 mL of 1% methyl cellulose (1% MC) with a mixer. […]
The collection time points were set to before administration (1 hour before) and 2 and 6 hours after administration on Days 1, 7, 14, 21, and 28, and blood was collected in an amount of about 300 μL per time point from the tail vein (n=7). […] The concentration of uric acid in the plasma was measured by HPLC (Shiseido Co., Ltd., current OSAKA SODA).
To acquire the predose value and data for grouping, a 1% aqueous methylcellulose solution was orally administered to all rats 5 days before the start of administration, and the uric acid concentration in the plasma was measured according to the above-described method such as subcutaneous administration of potassium oxonate. […]

Data set [2] is described as follows: Test Example 2b, absorbability of solid dispersion containing Compound 14 in rats. It is filed as in vivo, rats (Crl:CD (SD)). The note with it: rat, single oral, 30 mg/kg as Compound 14, fasted. Here is the method: A single dose of 10 mg/kg or 30 mg/kg, as Compound 14, of the solid dispersions of Reference Example 2b and Comparative Reference Example 10b and the sample of Comparative Reference Example 11b suspended in a 1% carboxymethylcellulose aqueous solution was orally administered to fasted male rats (8 weeks old, Crl:CD (SD), Japan Charles River Laboratories). A crystalline drug substance of Compound 14 was used as a control (Comparative Reference Example 12b). A collection time was 0.5, 1, 2, 4, 8, and 24 hours after administration, and about 300 μL of blood was collected at each time point from vena caudalis (n=3). The obtained blood was centrifuged at 1500×g, 4° C. for 15 minutes to obtain a plasma. The concentration of Compound 14 in the plasma was measured by HPLC (Shiseido Company, Limited and Hitachi High-Technologies Corporation). A time to reach the highest concentration in the plasma (Tmax), the highest concentration in the plasma (Cmax) and an area under the plasma concentration-time curve (AUC) were calculated from the change in the concentration in the obtained plasma. Here, values in the table are the mean value±standard deviation of three examples.

The next data set deals with RCS rats. The data set is described as follows: Example 3, suppressive action on retinal degeneration. It is filed as in vivo. The settings on record: oral once a day for 18 days, 1 mg/100 g body weight as Compound 14 (solid dispersion of Formulation Example 1); versus control, p<0.05, n=4. Here is the method: (§1) Three week old RCS rats (CLEA Japan, Inc., male) were purchased and randomly divided into a control group and a Compound 14 administration group. From 3.5 weeks of age, control and Compound 14 were orally administered daily once a day for 18 days. To the control group, 1% methylcellulose (Metrose (SM-15) manufactured by Shin-Etsu Chemical Co., Ltd.) was administered, and to the Compound 14 administration group, a preparation in which a solid dispersion of Compound 14 described in “Formulation Example 1” described later was suspended in 1% methylcellulose was administered at a dose of 5 mg/100 g body weight (1 mg/100 g body weight as Compound 14) per administration. Because xanthine stones are likely to occur in rodents due to XOR inhibition, Uralyt-U combination powder (manufactured by Nippon Chemiphar Co., Ltd.) was administered to both groups in drinking water at a concentration of 1% (w/v) in order to prevent/reduce xanthine stones. On Day 19 after completion of administration for 18 days, eyeballs of both eyes were collected from both groups, and a tissue image was observed on one eyeball.

For data set [3], the system named is MOVAS-1 cells having XOR activity. Nature of the data set: Example 2, ATP enhancing action in presence of uncoupler (CCCP). It is filed as cell-based. The settings on record: 6 μM Compound 14, CCCP 10 μM, 30 minutes; versus control of the CCCP addition group. Here is the method: MOVAS-1 cells having XOR activity were used for Examples. All examinations were performed at n=3 for each number of samples. The medium of MOVAS-1 cells in a confluent state (with D-MEM/low glucose/10% FBS/100 uM Oxionate) was divided into a medium for a CCCP addition group and a medium for a CCCP non-addition group, and 6 μM Compound 14 was added to the media. Nothing was added to the control of each group. Thereafter, to the CCCP addition group, CCCP was added so as to have a final concentration of 10 μM. After standing for 30 minutes, deproteinization was performed by PCA, and then ATP, ADP, and AMP concentrations were measured using HPLC.

Another data set deals with serum. Nature of the data set: Example 5, concentration of hypoxanthine and inosine in serum. The class given is in vivo, RCS rats. The settings on record: Day 11 after 10 days daily oral administration. Here is the method:
In the same manner as in Example 3, to RCS rats, control or Compound 14 was orally administered daily for 10 days, and Uralyt-U combination powder (manufactured by Nippon Chemiphar Co., Ltd.) was administered in drinking water. On Day 11 after completion of administration for 10 days, blood was collected from both groups to prepare serum.

The subject of a further data set is eyeball. The data set is described as follows: Example 4, measurement of concentration of various molecules in eyeball. The settings on record: Day 19 after 18 days oral administration. Also noted: unit not given here. It is filed as in vivo, RCS rats. Here is the method: as §1
Concentrations of various molecules in one eyeball collected in Example 3 were measured. The eyeball stored at −80° C. was freeze-pulverized, a 5% perchloric acid solution in an amount of 2 times (w/w) was added, and the mixture was vortexed. The supernatant obtained by centrifugation at 15000 rpm and 4° C. for 5 minutes was neutralized with a 3 M potassium carbonate solution. The mixture was centrifuged again at 15000 rpm and 4° C. for 5 minutes, and the supernatant was equilibrated with 0.5 M sodium phosphate buffer to prepare an eyeball extraction solution. ATP, ADP, AMP, IMP, inosine, hypoxanthine, xanthine, uric acid, GTP, GDP, and GMP in the solution were measured by HPLC (HPLC: Shimadzu Corporation LC-20AD, Diode array detector: Shimadzu Corporation SPD-M20A), and the energy charge was calculated (Calculation formula: ([ATP]+½ [ADP])/([ATP]+[ADP]+[AMP])).

A short description of data set [4]: Distribution of administered Compound 14 in the eyeball. The note with it: Compound 14 administered to the rat. The class given is in vivo.
Data set [5] deals with serum uric acid level. The data set is described as follows: Reference Example 14, action of lowering serum uric acid level in healthy adult males. The class given is in vivo. The note with it: for maximum rate of decrease in a blood uric acid level: solid dispersion capsules of Formulation Example 1. Here is the method:
For comparative reference, the results are shown in FIG. 9 together with the result of a case described in Non Patent Literature 3 in which febuxostat (40 mg) was used.

The test system of data set [6] is MOVAS-1 cells having XOR activity. Nature of the data set: Example 1, ATP enhancing action in hypoxic condition. The note with it: 1% oxygen, 4 hours. It is filed as cell-based. Here is the method:
MOVAS-1 cells having XOR activity were used for Examples. All examinations were performed at n=3 for each number of samples. The medium of MOVAS-1 cells in a confluent state (with D-MEM/low glucose/10% FBS/100 μM Oxionate) was divided into a medium for a hypoxanthine addition group and a medium for a hypoxanthine non-addition group, 50 μM hypoxanthine, and 6 μM Compound 14, 10 μM febuxostat, or 100 μM allopurinol were added to the medium of the hypoxanthine addition group, and 6 μM Compound 14, 10 μM febuxostat, or 100 μM allopurinol was added to the medium of the hypoxanthine non-addition group. For the control of each group, only 50 μM hypoxanthine was added to the hypoxanthine addition group, and nothing was added to the hypoxanthine non-addition group. Thereafter, the media were allowed to stand for 4 hours under mixed gas conditions of 1% oxygen, 5% carbon dioxide, and 94% nitrogen. After deproteinization by PCA, ATP, ADP and AMP concentrations were measured using HPLC.

With `Cc1nc(-c2ccc(OCC(C)C)c(C#N)c2)sc1C(=O)O` [febuxostat, reference compound], the “maximum rate of decrease in a blood uric acid level” value with serum uric acid level [1] is recorded as “about 35%”. Besides, the “rate of change of the plasma uric acid level AUC (−1) to 6 with respect to the control group” value in the data set on plasma uric acid level is given as “no clear increase was observed”.

As a reminder, the Cmax is the highest concentration seen after dosing. `N#Cc1cc(-c2nc3c(O)ncnc3s2)ccc1Oc1ccccc1` [Comparative Reference Example 11b, 2-(3-Cyano-4-phenoxyphenyl)-7-hydroxythiazolo[5,4-d]pyrimidine]: in [2], the AUClast was 15369 ± 7776 ng·h/mL and the Cmax was determined as 1724 ± 65 ng/mL.

Usually Tmax stands for the time from dosing to the highest level. For the molecule `N#Cc1cc(-c2nc3c(O)ncnc3s2)ccc1Oc1ccccc1` [Comparative Reference Example 12b, 2-(3-Cyano-4-phenoxyphenyl)-7-hydroxythiazolo[5,4-d]pyrimidine], in data set [2], the AUClast turned out to be 1157 ± 261 ng·h/mL, the peak concentration (Cmax) is reported as 239 ± 99 ng/mL and the Tmax was found to be 4.7 ± 3.1 h.

As to `N#Cc1cc(-c2nc3c(O)ncnc3s2)ccc1Oc1ccccc1` [Compound 14, 2-(3-Cyano-4-phenoxyphenyl)-7-hydroxythiazolo[5,4-d]pyrimidine], the “thinning of the outer nuclear layer and the cone-rod layer in the retinal tissue” value in the data set on RCS rats is listed as “significantly suppressed”. Besides, in data set [3], the total adenylate concentration result was “higher than the total adenylate concentration of the control group of the CCCP addition group”. The “increase of the concentration of hypoxanthine in the serum versus control” value with serum was “about 7 times”. Besides, the “increase of the concentration of inosine in the serum versus control” value in the data set on serum is on record as “about 38 times”. In the data set with serum (p = 0.023 vs control), the “Hypoxanthine, Serum (n = 4)” value was 92.020 ± 47.670. In addition, in the data set with serum (p = 0.026 vs control), the “Inosine, Serum (n = 4)” value is recorded as 9.950 ± 6.280. Further, in the data set with eyeball (NS p = 0.069 vs control), the GTP was 53.157 ± 8.352. Besides, in the data set on eyeball (NS p = 0.081 vs control), the Hypoxanthine stood at 8.450 ± 3.244. In the data set with eyeball (NS p = 0.095 vs control), the Xanthine came out at 1.739 ± 0.590. Also, the GMP in the data set with eyeball (p = 0. 000 vs control) was 2.458 ± 1.898. Further, in the data set with eyeball (p = 0.002 vs control), the IMP is given as 3.640 ± 1.122. Also, in the data set on eyeball (p = 0.004 vs control), the ADP was found to be 55.134 ± 7.253. Moreover, the AMP with eyeball (p = 0.010 vs control) stood at 27.828 ± 8.547. The Uric acid in the data set with eyeball (p = 0.027 vs control) turned out to be 1.344 ± 0.444. In addition, in the data set on eyeball (p = 0.033 vs control), the ATP was 175.809 ± 25.506. In the data set on eyeball (p = 0.036 vs control), the GDP came out at 8.115 ± 1.245. Also, in the data set on eyeball (p = 0.047 vs control), the Inosine came to 13.063 ± 4.690. For the same molecule, the “distribution in the eyeball” value in [4] is “hardly distributed in the eyeball”. In addition, the “serum uric acid level over the administration period” value with serum uric acid level [5] (40 mg once daily for 7 days, capsules containing micronized Compound 14) is “gradually decreased over time throughout the administration period”. For the same molecule, the “maximum rate of decrease in a blood uric acid level” value is “about 30%” with serum uric acid level [5] (80 mg once daily for 7 days, seventh day (about 8 hours after the administration)) and “about 17%” with serum uric acid level [5] (80 mg once daily, first day of the administration (12 hours after the administration)). In addition, in [6] (6 μM Compound 14 versus 10 μM febuxostat or 100 μM allopurinol, with or without 50 μM hypoxanthine), the “ATP enhancing action (ATP, ADP and AMP concentrations)” value was “exhibited effects at doses lower than febuxostat and allopurinol”. For the same molecule, the “ATP enhancing action in hypoxic condition, hypoxanthine in combination” value in data set [6] (50 μM hypoxanthine, 6 μM Compound 14 versus 10 μM febuxostat) is “significant difference between Compound 14 and febuxostat”. For the same molecule, the “rate of change of the plasma uric acid level AUC (−1) to 6 with respect to the control group” value with plasma uric acid level is given as “increased with repeated administration”.
